Measured values: patent US9475848B2 (priority 2012, dated 2016)
Values joined by “and” are separate entries in the source; they are usually repeats but may differ in a detail not shown here. Identical values can stand only once. Like-named read-outs stand apart in the source and are kept apart here.

Assays:
B. pertussis [1] = format: cell-based, Bordetella pertussis
[2] = test system: pertussis toxin (PT) production; format: cell-based, Bordetella pertussis
Bordetella pertussis = format: cell-based; conditions: for accumulation of bvg^− cells: MgSO4 20 mM (series C), niacin 0.604 g/L (series B) or both, compared with series A
B. pertussis [3] = test system: B. pertussis
[4] = COQ255: niacin 0.604 g/L in first two pre-cultures, 0.004 g/L thereafter

O=C(O)[C@@H]1CCCN1 [proline]
Final biomass (OD650 nm) (B. pertussis [1]; COQ278: proline 12 g/L, sodium glutamate 7 g/L, NaCl 0 g/L): 11.3 OD650nm | Final biomass (OD650 nm) (B. pertussis [1]; COQ280: proline 1 g/L, sodium glutamate 20 g/L, NaCl 0 g/L): 9.7 OD650nm

N[C@@H](CS)C(=O)O [L-cysteine]
PT concentration at end of fermentation [2]: 19 mg/L and 13 mg/L | Specific PT production at end of fermentation [2]: 2.0 mg L^−1 mg L^−1 OD650 nm^−1 and 1.2 mg L^−1 OD650 nm^−1 | decrease in PT production compared to COQ280 [2]: 32% | Final biomass (OD650 nm) (B. pertussis [1]; COQ280: L-cysteine 0.04 g/L): 9.7 OD650 nm | Final biomass (OD650 nm) (B. pertussis [1]; COQ396: L-cysteine 0.2 g/L): 11.0 OD650 nm

O=P([O-])(O)O.[K+] [KH2PO4]
PT concentration at end of fermentation [2]: 19 mg/L and 13 mg/L | Specific PT production at end of fermentation [2]: 2.0 mg L^−1 mg L^−1 OD650 nm^−1 and 1.4 mg L^−1 OD650 nm^−1 | decrease in PT production compared to COQ280 [2]: 32% | Final biomass (OD650 nm) (B. pertussis [1]; COQ279: KH2PO4 0.8 g/L): 9.2 OD650 nm | Final biomass (OD650 nm) (B. pertussis [1]; COQ280: KH2PO4 0.5 g/L): 9.7 OD650 nm

O=C(O)c1cccnc1 [niacin]
number of generations for which control of bvg^− take-over is effective (Bordetella pertussis): up to 100 generations | accumulation of bvg^− cells (Bordetella pertussis): significantly lower accumulation of bvg^− cells | Proportion of bvg^− cells (Bordetella pertussis; Series A: niacin 0.004 g/L, no MgSO4, end of fourth culture, start 1%): 8% | Proportion of bvg^− cells (Bordetella pertussis; Series A: niacin 0.004 g/L, no MgSO4, end of third culture, start 1%): 5% | Proportion of bvg^− cells (Bordetella pertussis; Series B: niacin 0.604 g/L, no MgSO4, end of fourth culture, start 1%): 2% | Proportion of bvg^− cells (Bordetella pertussis; Series B: niacin 0.604 g/L, no MgSO4, end of third culture, start 1%): 1% | Proportion of bvg^− cells (Bordetella pertussis; Table 4 Series A: niacin 0.004 g/L, end of first culture, start 6%): 9% | Proportion of bvg^− cells (Bordetella pertussis; Table 4 Series A: niacin 0.004 g/L, end of second culture, start 6%): 14% | Proportion of bvg^− cells (Bordetella pertussis; Table 4 Series A: niacin 0.004 g/L, end of third culture, start 6%): 24% | Proportion of bvg^− cells (Bordetella pertussis; Table 4 Series B: niacin 0.021 g/L, end of first culture, start 6%): 9% | Proportion of bvg^− cells (Bordetella pertussis; Table 4 Series B: niacin 0.021 g/L, end of second culture, start 6%): 15% | Proportion of bvg^− cells (Bordetella pertussis; Table 4 Series B: niacin 0.021 g/L, end of third culture, start 6%): 19% | Proportion of bvg^− cells (Bordetella pertussis; Table 4 Series C: niacin 0.113 g/L, end of first culture, start 6%): 10% | Proportion of bvg^− cells (Bordetella pertussis; Table 4 Series C: niacin 0.113 g/L, end of second culture, start 6%): 14% | Proportion of bvg^− cells (Bordetella pertussis; Table 4 Series C: niacin 0.113 g/L, end of third culture, start 6%): 21% | Proportion of bvg^− cells (Bordetella pertussis; Table 4 Series D: niacin 0.604 g/L, end of first culture, start 6%): 5% | Proportion of bvg^− cells (Bordetella pertussis; Table 4 Series D: niacin 0.604 g/L, end of second culture, start 6%): 5% | Proportion of bvg^− cells (Bordetella pertussis; Table 4 Series D: niacin 0.604 g/L, end of third culture, start 6%): 4% | controlling the take-over of bvg^− cells (Bordetella pertussis; low niacin concentrations): less effective | control of the take-over of bvg^− cells (Bordetella pertussis; niacin 0.6 g/L rather than 0.004 g/L, independently of initial proportion of bvg− cells): effectively control the take-over of bvg^− cells | bvg^− take-over (Bordetella pertussis; niacin 0.604 g/L, up to 15 generations): no bvg^− take-over was observed | PT concentration at end of fermentation [2]: 22.8 mg/L | Specific PT production at end of fermentation [2]: 3.2 mg L^−1 OD650 nm^−1 | Final biomass (OD650 nm) (B. pertussis [1]; [4]): 7.2 OD650 nm | Total fermentation time (B. pertussis [1]; [4]): 43 h | Final proportion of bvg^− in 20 L-fermentor (B. pertussis [3]): 13% | Initial proportion of bvg^− in 20 L-fermentor (B. pertussis [3]): 3%

O=S(=O)([O-])[O-].[Mg+2] [MgSO4]
accumulation of bvg^− cells (Bordetella pertussis): significantly lower accumulation of bvg^− cells | Proportion of bvg^− cells (Bordetella pertussis; Series C: MgSO4 20 mM, niacin 0.004 g/L, end of fourth culture, start 1%): 2% | Proportion of bvg^− cells (Bordetella pertussis; Series C: MgSO4 20 mM, niacin 0.004 g/L, end of third culture, start 1%): 3%
